# In patent US20230399313A1, “BIOLOGICAL ACTIVITIES OF 5-(2-(4-(4-FLUORO-2-METHYL-1H-INDOL-5-YLOXY)-6-METHOXYQUINOLIN-7-YLOXY)ETHYL)-5-AZASPIRO[2.4]-HEPTAN-7-OL CRYSTALLINE, PHOSPHORIC ACID SALT AND ITS ENANTIOMERS” (Advenchen Pharmaceuticals, LLC, priority 2022, published 2023):
# What was measured:
# BEL-7402 = experiment: In vitro MTT (proliferation) assay; format: cell-based; conditions: Homo sapiens, Liver
# 786-O = experiment: In vitro MTT (proliferation) assay; format: cell-based; conditions: Homo sapiens, 786-0, Kidney
# A2780 = experiment: In vitro MTT (proliferation) assay; format: cell-based; conditions: Homo sapiens, Ovary
# PDGFRβ(h) = PDGFRβ(h) (Homo sapiens, UniProt P09619); experiment: Kinase inhibition; format: biochemical
# Sequence of PDGFRβ(h) (P09619 33-1106): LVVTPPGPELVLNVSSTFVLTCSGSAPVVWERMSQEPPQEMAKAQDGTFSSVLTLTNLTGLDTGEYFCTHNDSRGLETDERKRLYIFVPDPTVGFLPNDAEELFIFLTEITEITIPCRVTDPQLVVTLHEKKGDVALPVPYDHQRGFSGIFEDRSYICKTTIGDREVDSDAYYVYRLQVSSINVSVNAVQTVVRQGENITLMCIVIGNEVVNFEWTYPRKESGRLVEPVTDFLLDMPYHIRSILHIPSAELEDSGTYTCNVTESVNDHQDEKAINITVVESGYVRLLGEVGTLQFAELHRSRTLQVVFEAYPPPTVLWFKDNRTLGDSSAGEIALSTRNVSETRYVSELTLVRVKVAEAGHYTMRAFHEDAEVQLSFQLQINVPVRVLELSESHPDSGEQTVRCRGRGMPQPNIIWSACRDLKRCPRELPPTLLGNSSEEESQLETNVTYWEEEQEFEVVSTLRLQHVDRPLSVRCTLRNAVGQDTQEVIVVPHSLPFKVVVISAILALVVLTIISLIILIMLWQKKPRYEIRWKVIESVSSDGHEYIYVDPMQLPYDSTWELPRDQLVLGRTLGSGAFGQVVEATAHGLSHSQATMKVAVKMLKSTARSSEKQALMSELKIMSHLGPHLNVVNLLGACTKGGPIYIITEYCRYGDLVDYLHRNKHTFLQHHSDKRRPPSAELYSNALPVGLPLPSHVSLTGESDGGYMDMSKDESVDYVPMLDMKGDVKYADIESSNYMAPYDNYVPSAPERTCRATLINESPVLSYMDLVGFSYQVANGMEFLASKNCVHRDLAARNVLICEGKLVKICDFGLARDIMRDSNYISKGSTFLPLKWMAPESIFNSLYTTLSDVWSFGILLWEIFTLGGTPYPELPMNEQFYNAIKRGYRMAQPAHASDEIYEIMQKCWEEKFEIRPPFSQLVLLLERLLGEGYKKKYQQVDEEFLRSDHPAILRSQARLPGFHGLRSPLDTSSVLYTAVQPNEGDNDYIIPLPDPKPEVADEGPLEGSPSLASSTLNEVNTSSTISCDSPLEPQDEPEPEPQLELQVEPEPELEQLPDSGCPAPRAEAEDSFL
# From the text: (§1) […]. In vitro tyrosine kinase inhibition activities can be measured via commercial resources. Some of these tests can also be contracted with Eurofin or Reaction Biology for screening.
# For the kinase inhibition tests, receptor tyrosine kinases are selected from FGFR1(h), FGFR2(h), FGFR3(h), Flt1(h) (VEGFr1), Flt4(h) (VEGFr3), KDR(h) (VEGFr2), Aurora-B, PDGFRα(h) and PDGFRβ(h). […] […].
# [1] = tested on: colon cancer cell line colo205; experiment: Combination therapy MTT assay; format: cell-based, human
# Protocol: (§2) Compound A-Xln combination therapy MTT assay results were investigated. 100 μl of cell suspension with a concentration of 5×10^4 cells/ml was added to each well of a 96-well plate, and place in a 37° C., 5% CO2 incubator. After 24 h, Compound A-Xln sample solution was added according to Table 13, 10 μl/well for double-duplicate wells. After 72 hours at 37° C. and 5% CO2 incubation, 20 μl of 5 mg/ml MTT solution was added to each well, then 100 µl/well of dissolving solution was added after 4 hours. The samples were put in an incubator, and a full-wavelength multifunctional enzyme label machine was used after dissolving. The OD value at 570 nm was measured.
# (§3) Samples according to Table 14 were also tested for proliferation inhibitor of three colon cancer lines HT29, HCT116 and colo205 by Compound A-Xln, anti-colon cancer agent 5FU/O, and combination of Compound A-Xln and 5FU/O. The results are shown in FIGS. 15-17.
# [2] = tested on: colon cancer cell line HCT116; experiment: Combination therapy MTT assay; format: cell-based, human
# Protocol: as §2, §3
# [3] = tested on: colon cancer cell line HT29; experiment: Combination therapy MTT assay; format: cell-based, human
# Protocol: as §2, §3
# brain U87 = experiment: In vivo xenograft model; parameters: species or system nude mouse; conditions: oral daily 14-21 days, tumor weight vs control
# Protocol: (§4) Animal antitumor activity in vivo xenograft models with various tumor cell lines (SCLC NCI-H1436, NSCLC 95-D, ovarian SKVO3, renal 786-O, liver Bel-7420, brain U87) were performed as follows: The well grown tumor tissues of tumor cell lines were cut into 3 mm pieces, and each nude mouse was subcutaneously inoculated with one piece into the right flank. The animals were grouped and administered at pre-designed dosing. Treatments were initiated when the tumor size reached above 100 mm^3 after 10-14 days. According to the size of tumor, the animals with oversize or undersize tumors were eliminated, and the animals were grouped with similar average tumor volume. Then the animals were orally administrated daily for continuous 14-21 days. The large diameter a (mm) and the small diameter b (mm) were measured with caliper twice a week after inoculation for 13 days. Each tumor volume was calculated by formular: TV=ab^2/2 and the relative tumor volume was calculated as: RTV=Vt/Vo, Vo represents the tumor volume on the first day of treatment; Vt represents the tumor volume on each measurement day. The animals were executed and tumors were extracted by dissection 20-30 days after inoculation. The individual body weight and tumor weight were determined and calculated. Tumor Inhibit percentage was calculated as [1−((TWt)/(TWc)×100%, where TWt represents mean tumor weight of a treated group on the last day during the experiment, TWc represents mean tumor weight of the control group on the last day during the experiment. Experimental dosing and efficacy results are shown in FIGS. 19-24 of Drawing. The best tumor inhibition percentage ranges are >70% to 100%.
# ovarian SKVO3 = experiment: In vivo xenograft model; parameters: species or system nude mouse; conditions: oral daily 14-21 days, tumor weight vs control
# Protocol: as §4
# SCLC NCI-H1436 = experiment: In vivo xenograft model; parameters: species or system nude mouse; conditions: oral daily 14-21 days, tumor weight vs control
# Protocol: as §4
# NSCLC 95-D = experiment: In vivo xenograft model; parameters: species or system nude mouse; conditions: 95-D xenograft, oral daily 14-21 days, tumor weight vs control
# Protocol: as §4
# liver Bel-7420 = experiment: In vivo xenograft model; parameters: species or system nude mouse; conditions: Bel-7420 xenograft, oral daily 14-21 days, tumor weight vs control
# Protocol: as §4
# renal 786-O = experiment: In vivo xenograft model; parameters: species or system nude mouse; conditions: 786-O xenograft, oral daily 14-21 days, tumor weight vs control
# Protocol: as §4
# SKBR3 = experiment: In vitro MTT (proliferation) assay; format: cell-based; conditions: Homo sapiens, SK-BR-3, Breast
# KDR(h) (VEGFr2) = KDR(h) (VEGFr2) (Homo sapiens, UniProt P35968); experiment: Kinase inhibition; format: biochemical
# Sequence of KDR(h) (VEGFr2) (P35968 20-1356): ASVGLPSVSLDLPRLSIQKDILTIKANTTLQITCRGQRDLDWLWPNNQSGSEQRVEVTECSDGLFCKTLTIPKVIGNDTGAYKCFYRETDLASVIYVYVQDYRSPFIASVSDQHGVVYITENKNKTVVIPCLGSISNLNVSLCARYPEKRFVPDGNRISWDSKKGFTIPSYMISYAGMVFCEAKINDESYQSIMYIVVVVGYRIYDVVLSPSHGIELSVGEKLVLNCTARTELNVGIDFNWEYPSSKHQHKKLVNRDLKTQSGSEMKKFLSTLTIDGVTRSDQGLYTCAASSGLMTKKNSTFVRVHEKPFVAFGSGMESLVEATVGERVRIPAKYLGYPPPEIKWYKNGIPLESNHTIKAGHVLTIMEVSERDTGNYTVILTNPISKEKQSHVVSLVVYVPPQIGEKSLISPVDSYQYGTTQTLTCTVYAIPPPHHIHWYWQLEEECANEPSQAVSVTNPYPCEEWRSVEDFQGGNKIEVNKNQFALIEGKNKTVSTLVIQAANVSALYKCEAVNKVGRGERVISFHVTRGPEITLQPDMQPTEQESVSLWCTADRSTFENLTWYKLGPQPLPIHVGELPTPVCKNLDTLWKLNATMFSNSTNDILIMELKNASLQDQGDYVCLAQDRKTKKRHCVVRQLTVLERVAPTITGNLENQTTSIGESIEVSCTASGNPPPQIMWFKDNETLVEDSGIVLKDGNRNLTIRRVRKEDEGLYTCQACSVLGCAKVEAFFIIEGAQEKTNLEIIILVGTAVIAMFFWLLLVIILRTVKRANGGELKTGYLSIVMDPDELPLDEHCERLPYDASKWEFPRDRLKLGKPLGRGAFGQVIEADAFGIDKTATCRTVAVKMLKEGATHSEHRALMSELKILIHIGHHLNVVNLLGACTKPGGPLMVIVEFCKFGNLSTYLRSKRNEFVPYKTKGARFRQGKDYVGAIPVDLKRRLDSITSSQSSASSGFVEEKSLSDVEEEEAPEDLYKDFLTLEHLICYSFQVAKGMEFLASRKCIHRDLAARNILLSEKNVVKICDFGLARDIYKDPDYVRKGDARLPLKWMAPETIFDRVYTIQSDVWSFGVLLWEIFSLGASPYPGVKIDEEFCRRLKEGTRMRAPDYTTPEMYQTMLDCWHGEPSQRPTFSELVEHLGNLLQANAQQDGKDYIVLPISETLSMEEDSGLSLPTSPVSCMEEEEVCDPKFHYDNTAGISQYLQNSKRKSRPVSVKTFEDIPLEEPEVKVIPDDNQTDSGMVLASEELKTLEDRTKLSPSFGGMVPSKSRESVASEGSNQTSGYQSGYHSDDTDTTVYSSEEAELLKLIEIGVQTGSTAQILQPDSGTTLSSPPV
# From the text: as §1
# For the kinase inhibition tests, receptor tyrosine kinases are selected from FGFR1(h), FGFR2(h), FGFR3(h), Flt1(h) (VEGFr1), Flt4(h) (VEGFr3), KDR(h) (VEGFr2), Aurora-B, PDGFRα(h) and PDGFRβ(h). […]. […]
# [4] = Stability of amorphous and crystalline form API at 60° C. (HPLC related substances); format: physicochemical
# Protocol: The samples of amorphous and crystalline form API of Compound A were placed in clean containers and the environmental temperature was controlled at 60° C. The purity of amorphous (Compound A-Amp) and crystalline form (Compound A-Xln) of Compound A were tested at Day 0, Day 10 and Day 30. Samples of amorphous and crystalline form APIs were measured, and the appropriate amount of diluent was added to dissolve with sonication. The concentration was controlled at 0.2 mg/ml and the purification was determined by HPLC with UV detector at 230 nm. Results were listed in the table as follows and the fitted curve is in Drawing Sections as FIG. 6.
# SGC7901 = experiment: In vitro MTT (proliferation) assay; format: cell-based; conditions: Homo sapiens, SGC-7901, Stomach
# [5] = high temperature 60° C., 10 days
# [6] = high temperature 60° C., 30 days
smiles,measurement,setting,value
"COc1cc2c(Oc3ccc4[nH]c(C)cc4c3F)ccnc2cc1OCCN1CC(O)C2(CC2)C1 (centres unmarked) [Compound A-Xln, 5-(2-(4-(4-fluoro-2-methyl-1H-indol-5-yloxy)-6-methoxyquinolin-7-yloxy)ethyl)-5-azaspiro[2.4]-heptan-7-ol]",IC50,BEL-7402,0.86 ± 0.15 µM
same,IC50,786-O,10.1 ± 3.97 µM
same,IC50,A2780,2.63 ± 0.27 µM
same,IC50,PDGFRβ(h),0.026 µM
same,Inhibition activity in sequential dosing,"[1]; colo205, Compound A-Xln and 5FU/O dosed Day 1/Day 2 in either order",higher activity on regimen of dosing chemotherapy agents first followed by dosing Compound A later
same,Proliferation inhibition in combination,"[1]; colo205, combined with 5FU/O",increased
same,Inhibition activity in sequential dosing,"[2]; HCT116, Compound A-Xln and 5FU/O dosed Day 1/Day 2 in either order",higher activity on regimen of dosing chemotherapy agents first followed by dosing Compound A later
same,Proliferation inhibition in combination,"[2]; HCT116, combined with 5FU/O",increased
same,Inhibition activity in sequential dosing,"[3]; HT29, Compound A-Xln and 5FU/O dosed Day 1/Day 2 in either order",higher activity on regimen of dosing chemotherapy agents first followed by dosing Compound A later
same,Proliferation inhibition in combination,"[3]; HT29, combined with 5FU/O",increased
same,best tumor inhibition percentage,brain U87,> 70%
same,best tumor inhibition percentage,ovarian SKVO3,> 70%
same,best tumor inhibition percentage,SCLC NCI-H1436,> 70%
same,best tumor inhibition percentage,NSCLC 95-D,> 70%
same,best tumor inhibition percentage,liver Bel-7420,> 70%
same,best tumor inhibition percentage,renal 786-O,> 70%
same,IC50,SKBR3,12.2 ± 2 µM
same,IC50,KDR(h) (VEGFr2),0.015 µM
same,Maximum impurities (%),[4]; 0 day,0.032%
same,Total impurities (%),[4]; 0 day,0.078%
same,Stability compared with the amorphous form,"[4]; 60° C., up to 30 days",better stability than A-Amp
same,Maximum impurities (%),[4]; [5],0.039%
same,Total impurities (%),[4]; [5],0.115%
same,Maximum impurities (%),[4]; [6],0.063%
same,Total impurities (%),[4]; [6],0.194%
same,IC50,SGC7901,6.64 ± 0.81 µM
